Patent US12543738B2 (Bayer Aktiengesellschaft, priority 2020, dated 2026)
Marks after values point to notes of the source that are not given here.

Experiments:
[1] = Measurement of LogP values by HPLC on reversed phase columns (EEC directive 79/831 Annex V.A8); type: physicochemical; settings: for chromatographic logP: method [a]: LC-UV, acidic range
Experimental: Calibration was done with straight-chain alkan2-ones (with 3 to 16 carbon atoms) with known LogP values (measurement of LogP values using retention times with linear interpolation between successive alkanones). Lambda-max-values were determined using UV-spectra from 200 nm to 400 nm and the peak values of the chromatographic signals

Botrytis cinerea = test: In vivo preventive test on Botrytis cinerea (grey mould); settings: 500 ppm of active ingredient, preventive spray on gherkin or cabbage, evaluated 4 to 5 days after inoculation, read-out: efficacy
Experimental: (§1) The active ingredients were made soluble and homogenized in a mixture of Dimethyl sulfoxide/Acetone//Tween® 80 and then diluted in water to the desired concentration. The young plants of gherkin or cabbage were treated by spraying the active ingredient prepared as described above. Control plants were treated only with an aqueous solution of Acetone/Dimethyl sulfoxide/Tween® 80. After 24 hours, the plants were contaminated by spraying the leaves with an aqueous suspension of Botrytis cinerea spores.

Alternaria brassicae = test: In vivo preventive test on Alternaria brassicae (leaf spot on radish or cabbage); settings: 144 h, 500 ppm of active ingredient, preventive spray on radish or cabbage, evaluated 6 days after inoculation, read-out: efficacy
Experimental: as §1, with “radish” for “gherkin”, “Alternaria brassicae” for “Botrytis cinerea”

Sphaerotheca fuliginea = test: In vivo preventive test on Sphaerotheca fuliginea (powdery mildew on cucurbits); settings: Podosphaera fuliginea, 192 h; 500 ppm of active ingredient; preventive spray on gherkin; evaluated 8 days after inoculation; read-out: efficacy
Experimental: as §1, with “gherkin” for “gherkin or cabbage”, “Sphaerotheca fuliginea” for “Botrytis cinerea”

Alternaria alternata = Alternaria alternata in vitro cell test; type: cell-based; settings: 120 h, 20 ppm of active ingredient, liquid culture, 5 days incubation, read-out: efficacy (inhibition of fungal growth)
Experimental: • Solvent: DMSO • Culture medium: 14.6 g anhydrous D-glucose (VWR), 7.1 g Mycological Peptone (Oxoid), 1.4 g granulated Yeast Extract (Merck), QSP 1 liter • Inoculum: spores suspension Fungicides were solubilized in DMSO and the solution used to prepare the required range of concentrations. […] A spore suspension of A. alternata was prepared and diluted to the desired spore density. Fungicides were evaluated for their ability to inhibit spore germination and mycelium growth in liquid culture assay. The compounds were added in the desired concentration to the culture medium with spores. After 5 days incubation, fungi-toxicity of compounds was determined by spectrometric measurement of mycelium growth. Inhibition of fungal growth was determined by comparing the absorbance values in wells containing the fungicides with the absorbance in control wells without fungicides.

[2] = system: Colletotrichum lindemuthianum; test: In vivo preventive test on Colletotrichum lindemuthianum (leaf spot on bean); settings: 168 h, 500 ppm of active ingredient, preventive spray on bean, evaluated 7 days after inoculation, read-out: efficacy
Experimental: as §1, with “bean” for “gherkin or cabbage”, “Colletotrichum lindemuthianum” for “Botrytis cinerea”

Pyrenophora teres = test: In vivo preventive test on Pyrenophora teres (net blotch on barley); settings: 240 h, 500 ppm of active ingredient, preventive spray on barley, evaluated 10 days after inoculation, read-out: efficacy
Experimental: as §1, with “barley” for “gherkin or cabbage”, “Pyrenophora teres” for “Botrytis cinerea”

Pyricularia Oryzae = test: microbe, parasite or virus in culture; type: cell-based; settings: 120 h, read-out: efficacy (inhibition of fungal growth)
[3] = 0.1% formic acid in water and acetonitrile, compounds of formula (I-1), Table 1
[4] = 0.1% formic acid, intermediates of formula (4), Table 9

With `Cc1cc(C(=O)O)c(Oc2cccc(Cl)c2)nn1` [Compound 1-01] the LogP [1] was 1.26^[a].

`Cc1ccc(CC2CON=C(c3cc(Cl)nnc3Oc3cccc(Cl)c3)N2)c(Cl)c1` (racemic) [Compound I-017, (5RS)-3-[6-chloro-3-(3-chlorophenoxy)pyridazin-4-yl]-5-(2-chloro-4-methylbenzyl)-5,6-dihydro-4H-1,2,4-oxadiazine] gave a chromatographic logP [1, 3] of 4.44.

For `Cc1cc(C)cc(CC(N)CCl)c1.Cl` (centres unmarked) [Compound 13-02], the LogP [1] was 1.32[a].

For `Cc1ccc(C)c(CC(CCl)NC(=O)c2cc(C)nnc2Oc2cccc(Cl)c2)c1` (centres unmarked) [Compound 14-09], the LogP [1] was 4.37^[a].

For `Cc1cc(C)cc(CC(CCl)NC(=O)c2cc(C)nnc2Oc2cccc(C)c2F)c1` (centres unmarked) [Compound 14-04], the LogP [1] was 4.47^[a].

`NOCC(Cc1ccc(Cl)cc1Cl)NC(=O)c1cc(Cl)nnc1Oc1cccc(C2CC2)c1F` (racemic) [Compound 4-02, 6-chloro-3-(3-cyclopropyl-2-fluoro-phenoxy)-N-[(1RS)-1-(aminooxymethyl)-2-(2,4-dichlorophenyl)ethyl]pyridazine-4-carboxamide] gave a chromatographic logP [1, 4] of 3.7.

In the case of `Cc1ccc(CC(CCl)NC(=O)c2cc(C)nnc2Oc2cccc(C3(F)CC3)c2)c(C)c1` (centres unmarked) [Compound 14-10], the LogP [1] is reported as 4.58^[a].

In the case of `Cc1ccc(C)c(CC(CCl)NC(=NO)c2cc(C)nnc2Oc2cccc(Cl)c2F)c1` (centres unmarked) [Compound 15-05], the LogP [1] is reported as 3.84^[a].

Work on `Cc1ccc(CC(CON)NC(=O)c2cc(C)nnc2Oc2cccc(Cl)c2)c(C)c1` (racemic) [Compound 4-01, N-[(2RS)-1-(aminooxy)-3-(2,4-dimethylphenyl)propan-2-yl]-3-(3-chlorophenoxy)-6-methylpyridazine-4-carboxamide] yielded a chromatographic logP [1, 4] of 2.64.

For `Cc1ccc(CC(CCl)NC(=O)c2cc(C)nnc2Oc2cccc(Cl)c2)c(Cl)c1` (racemic) [Compound 14-03, N-[(2RS)-1-chloro-3-(2-chloro-4-methylphenyl)propan-2-yl]-3-(3-chlorophenoxy)-6-methylpyridazine-4-carboxamide], the chromatographic logP ([1]; 0.1% formic acid, intermediates of formula (14), Table 17) was 4.43.

`Cc1ccc(C[C@H]2CON=C(c3cc(C(Cl)Cl)nnc3Oc3cccc(C4CC4)c3F)N2)c(C)c1` [Compound I-021, (5S)-3-[3-(3-cyclopropyl-2-fluorophenoxy)-6-(dichloromethyl)pyridazin-4-yl]-5-(2,4-dimethylbenzyl)-5,6-dihydro-4H-1,2,4-oxadiazine] gave a chromatographic logP [1, 3] of 5.11.

With `Cc1ccc(C)c(CC(CCl)NC(=O)c2cc(C)nnc2Oc2cccc(Cl)c2F)c1` (centres unmarked) [Compound 14-07] the LogP [1] was 4.42^[a].

For `Cc1cc(C2=NOCC(Cc3ccc(Cl)cc3Cl)N2)c(Oc2cccc(C3(Cl)CC3)c2)nn1` (racemic) [Compound I-022, (5RS)-3-{3-[3-(1-chlorocyclopropyl)phenoxy]-6-methylpyridazin-4-yl}-5-(2,4-dichlorobenzyl)-5,6-dihydro-4H-1,2,4-oxadiazine], the pest or weed control at 500 ppm (Botrytis cinerea) was 90 to 100%, the pest or weed control at 500 ppm (Alternaria brassicae) was 90 to 100% and the pest or weed control at 500 ppm (Sphaerotheca fuliginea) was 90 to 100%. For the same molecule, the inhibition at 20 ppm (Alternaria alternata) was 90 to 100%, the pest or weed control at 500 ppm [2] was 90 to 100% and the chromatographic logP [1, 3] was 4.51. The pest or weed control at 500 ppm (Pyrenophora teres) was 90 to 100% and the inhibition at 20 ppm (Pyricularia Oryzae) was 70 to 79%.

In the case of `Cc1ccc(C)c(CC(CCl)NC(=NO)c2cc(C)nnc2Oc2cccc(Cl)c2)c1` (centres unmarked) [Compound 15-07], the LogP [1] is reported as 3.74^[a].

For `Cc1ccc(CC(N)CCl)c(C)c1.Cl` (centres unmarked) [Compound 13-04], the LogP [1] was 1.24[a].

For `Cc1ccc(CC(CCl)NC(=O)c2cc(Cl)nnc2Oc2cccc(Cl)c2)c(Cl)c1` (centres unmarked) [Compound 14-12], the LogP [1] was 4.97^[a].

With `Cc1ccc(CC(CCl)NC(=NO)c2cc(C)nnc2Oc2cccc(Cl)c2)c(Cl)c1` (racemic) [Compound 15-03] the chromatographic logP ([1]; 0.1% formic acid, intermediates of formula (15), Table 15) was 3.78.

For `Cc1cc(C(=O)O)c(Oc2cccc(C)c2F)nn1` [Compound 1-02], the LogP [1] was 1.32^[a].

For `Clc1ccc(CC2CON=C(c3cc(Cl)nnc3Oc3cccc(C4(Cl)CC4)c3)N2)c(Cl)c1` (racemic) [Compound I-024, (5RS)-3-{6-chloro-3-[3-(1-chlorocyclopropyl)phenoxy]pyridazin-4-yl}-5-(2,4-dichlorobenzyl)-5,6-dihydro-4H-1,2,4-oxadiazine], the chromatographic logP [1, 3] was 4.93.

With `O=C(NC(CON1C(=O)c2ccccc2C1=O)Cc1ccc(Cl)cc1Cl)c1cc(Cl)nnc1Oc1cccc(C2CC2)c1F` (centres unmarked) [Compound 3-02] the LogP [1] was 5.27^[a].

For `Cc1cc(C)cc(CC(CCl)NC(=O)c2cc(C)nnc2Oc2cccc(Cl)c2F)c1` (centres unmarked) [Compound 14-06], the LogP [1] was 4.59^[a].

For `Cc1ccc(CC(CCl)NC(=NO)c2cc(C)nnc2Oc2cccc(Cl)c2)c(Br)c1` (centres unmarked) [Compound 15-01], the LogP [1] was 3.84^[a].

With `Cc1ccc(C)c(CC(CCl)NC(=O)c2cc(C)nnc2Oc2cccc(C)c2F)c1` (centres unmarked) [Compound 14-08] the LogP [1] was 4.37^[a].

With `Cc1cc(C)cc(CC(CCl)NC(=NO)c2cc(C)nnc2Oc2cccc(Cl)c2F)c1` (centres unmarked) [Compound 15-04] the LogP [1] was 3.98^[a].

With `Cc1cc(C(=O)O)c(Oc2cccc(C3(F)CC3)c2)nn1` [Compound 1-05] the LogP [1] was 0.68^[a].

In the case of `Cc1cc(C(=O)OC(C)C)c(Oc2cccc(C3(F)CC3)c2)nn1` [Compound 1-06], the LogP [1] is reported as 4.73^[a].

For `Cc1ccc(CC(CCl)NC(=O)c2cc(C)nnc2Oc2cccc(C)c2F)c(Cl)c1` (centres unmarked) [Compound 14-02], the LogP [1] was 4.43^[a].

In the case of `Cc1ccc(CC(CON2C(=O)c3ccccc3C2=O)NC(=O)c2cc(C)nnc2Oc2cccc(Cl)c2)c(C)c1` (racemic) [Compound 3-01, 3-(3-chlorophenoxy)-N-{(2RS)-1-(2,4-dimethylphenyl)-3-[(1,3-dioxo-1,3-dihydro-2H-isoindol-2-yl)oxy]propan-2-yl}-6-methylpyridazine-4-carboxamide], the chromatographic logP ([1]; 0.1% formic acid, intermediates of formula (3), Table 7) is reported as 4.47.

With `Cc1ccc(CC(CCl)NC(=O)c2cc(C)nnc2Oc2cccc(Cl)c2)c(Br)c1` (centres unmarked) [Compound 14-01] the LogP [1] was 4.51^[a].

For `Cc1cc(C)cc(CC(CCl)NC(=O)c2cc(C)nnc2Oc2cccc(Cl)c2)c1` (centres unmarked) [Compound 14-05], the LogP [1] was 4.51^[a].

For `Cc1ccc(CC(CCl)NC(=NO)c2cc(C)nnc2Oc2cccc(C)c2F)c(Cl)c1` (centres unmarked) [Compound 15-02], the LogP [1] was 3.75^[a].

In the case of `Cc1ccc(CC(N)CON2C(=O)c3ccccc3C2=O)c(C)c1.O=C(O)C(F)(F)F` (centres unmarked) [Compound 2-01], the LogP [1] is reported as 1.55[a].

In the case of `Cc1ccc(C)c(CC(N)CCl)c1.Cl` (centres unmarked) [Compound 13-03], the LogP [1] is reported as 1.13[a].

With `Cc1ccc(C)c(CC(CCl)NC(=NO)c2cc(C)nnc2Oc2cccc(C)c2F)c1` (centres unmarked) [Compound 15-06] the LogP [1] was 3.74^[a].
